Test results reported in patent publication US20260176270A1 (Exelixis, Inc., priority 2022, published 2026).
Where two headings read alike, the source gives them in different places.

What was measured:
[1] = target: T1, PKMYT1 (Homo sapiens, UniProt Q99640); assay: ADP-Glo PKMYT1 ATP-depletion assay; conditions: 50 nM PKMYT1, 13.3 nM CDK1, read-out: Biochemical IC50
T1 construct: PKMYT1 (93 kD, full length, N-terminal GST tag from Signal Chem); GST (N); purchased Signal Chem
T1 sequence (Q99640 1-499): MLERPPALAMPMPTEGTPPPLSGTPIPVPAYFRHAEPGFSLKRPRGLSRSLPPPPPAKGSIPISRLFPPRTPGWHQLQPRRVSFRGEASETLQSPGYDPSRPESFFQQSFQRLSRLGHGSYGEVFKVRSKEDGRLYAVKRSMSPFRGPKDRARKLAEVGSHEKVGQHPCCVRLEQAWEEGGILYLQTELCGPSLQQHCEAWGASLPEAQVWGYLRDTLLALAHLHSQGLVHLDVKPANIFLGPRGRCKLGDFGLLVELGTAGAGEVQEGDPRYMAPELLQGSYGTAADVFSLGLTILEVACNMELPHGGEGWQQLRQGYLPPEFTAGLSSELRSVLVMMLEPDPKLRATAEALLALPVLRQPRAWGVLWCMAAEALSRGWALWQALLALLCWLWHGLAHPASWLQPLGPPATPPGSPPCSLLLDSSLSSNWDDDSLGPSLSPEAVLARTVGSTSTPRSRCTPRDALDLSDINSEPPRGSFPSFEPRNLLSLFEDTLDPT
In short: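 Full-length N-terminal GST-tagged PKMYT1 (50 nM) with GST-CDK1 (13.3 nM) as substrate and 88 µM ATP, in Hepes buffer with MgCl2, MnCl2, DTT and BSA; DMSO <1%. Incubated 120 min at RT. ADP formed was quantified by ADP-Glo luminescence and used to derive biochemical IC50.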

[2] = tested on: phosphorylation of CDK1 at Thr14 in HCC1806 cells; assay: Cell lysate AlphaLISA assay measuring inhibition of phosphorylation of CDK1 Thr14; assay type: cell-based; conditions: read-out: Cellular IC50
In short: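 HCC1806 cells seeded overnight, then treated 4 h at 37 °C, 5% CO2 with compounds in DMSO; washed and lysed, lysates frozen overnight at −80 °C. CDK1 Thr14 phosphorylation read by AlphaLISA SureFire Ultra; data normalized to DMSO (0% inhibition) and 3 μM reference compound to give IC50.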

SMILES | IC50 [1] [nM] | IC50 ([2]; Homo sapiens, HCC1806, 4 h) [nM] | IC50 ([2]; 4 hours) [nM]
NC(=O)c1cc2nccnc2c(-c2ccc(F)c(O)c2)c1N [Compound 200] | 50 to 500 | ≥ 5000 | –
Cc1c(F)cncc1C1=c2ncccc2=NC(C(N)=O)C1N (centres unmarked) [Compound 225] | ≥ 5000 | – | ≥ 5000
Cc1ccc(O)c(C)c1-c1c(N)c(C(N)=O)cc2nc(C(F)(F)F)cnc12 [Compound 101, 7-Amino-8-(3-hydroxy-2,6-dimethylphenyl)-3-(trifluoromethyl)quinoxaline-6-carboxamide] | 50 to 500 | 50 to 500 | –
Cc1ccc2[nH]ncc2c1-c1c(N)c(C(N)=O)nc2cccnc12 (single isomer, unassigned) [Compound 7, (P)-3-amino-4-(5-methyl-1H-indazol-4-yl)-1,5-naphthyridine-2-carboxamide] | 50 to 500 | – | 1000 to 5000
NC(=O)c1nc2cccnc2c(-c2cc(F)cc3[nH]ncc23)c1N [Compound 203] | 50 to 500 | 1000 to 5000 | –
Cc1c(O)cccc1-c1c(N)c(C(N)=O)cc2nc(N3CCOCC3)cnc12 [Compound 321] | < 50 | 500 to 1000 | –
Cc1cnc2c(-c3c(C)ccc(O)c3C)c(N)c(C(N)=O)cc2n1 [Compound 217] | < 50 | – | 50 to 500
Cc1cc(O)cc(C)c1-c1cc(C(N)=O)cc2nccnc12 [Compound 131] | ≥ 5000 | ≥ 5000 | –
Cc1c(O)cccc1-c1c(N)c(C(N)=O)cc2nc(C(F)(F)F)cnc12 (atropisomer, axis not shown; (M)) [Compound 103, (M)-7-Amino-8-(3-hydroxy-2-methylphenyl)-3-(trifluoromethyl)quinoxaline-6-carboxamide] | 1000 to 5000 | – | ≥ 5000
Cc1ccc2[nH]ncc2c1-c1c(N)c(C(N)=O)nc2cccnc12 [Compound 6, 3-amino-4-(5-methyl-1H-indazol-4-yl)-1,5-naphthyridine-2-carboxamide] | 50 to 500 | 1000 to 5000 | –
NC(=O)c1cc2nccnc2c(-c2ccc3ocnc3c2)c1N [Compound 178] | ≥ 5000 | ≥ 5000 | –
COc1ccnc2c(-c3cccc(O)c3C)c(N)c(C(N)=O)cc12 (atropisomer, axis not shown) [Compound 327] | < 50 | – | < 50
Cc1c(-c2c(N)c(C(N)=O)cc3nccnc23)ccc(F)c1O (atropisomer, axis not shown) [Compound 295] | < 50 | – | 50 to 500
NC(=O)c1cc(-c2cccc3[nH]ncc23)c2nccnc2c1 [Compound 75, 8-(1H-indazol-4-yl)quinoxaline-6-carboxamide] | ≥ 5000 | ≥ 5000 | –
NC(=O)c1nc2cccnc2c(-c2cccc3[nH]nc(F)c23)c1N [Compound 306] | 50 to 500 | – | ≥ 5000
Cc1ccc(O)c(C)c1-c1c(N)c(C(N)=O)nc2c(F)cccc12 [Compound 25] | 50 to 500 | 1000 to 5000 | –
Cc1c(-c2c(N)c(C(N)=O)cc3nccnc23)ccnc1O [Compound 110, 7-Amino-8-(2-hydroxy-3-methylpyridin-4-yl)quinoxaline-6-carboxamide] | ≥ 5000 | – | ≥ 5000
NC(=O)c1cc2nccnc2c(-c2c(Cl)ccc3[nH]ncc23)c1N (atropisomer, axis not shown) [Compound 247] | 1000 to 5000 | – | ≥ 5000
Cc1c(O)cccc1-c1c(N)c(C(N)=O)nc2cc(Cl)ccc12 [Compound 37, 3-Amino-7-chloro-4-(3-hydroxy-2-methylphenyl)quinoline-2-carboxamide] | 1000 to 5000 | 1000 to 5000 | –
Cc1ccc(O)c(C)c1-c1c(N)c(C(N)=O)cc2nc(N3CCC4(COC4)C3)cnc12 [Compound 339] | 50 to 500 | 1000 to 5000 | –
Cc1c(-c2c(N)c(C(N)=O)cc3nccnc23)ccc2[nH]cnc12 [Compound 252] | ≥ 5000 | ≥ 5000 | –
NC(=O)c1nc2cccnc2c(-c2cccc3c2CCN3)c1N [Compound 160] | ≥ 5000 | 500 to 1000 | –
Cc1ccc(O)c(C)c1-c1c(N)c(C(N)=O)cc2nccnc12 [Compound 82, 7-Amino-8-(3-hydroxy-2,6-dimethylphenyl)quinoxaline-6-carboxamide] | < 50 | 50 to 500 | –

SMILES | IC50 [1] [nM] | IC50 ([2]; Homo sapiens, HCC1806, 4 h) [nM] | IC50 ([2]; 4 hours) [nM]
Cc1cnc2cc(C(N)=O)c(N)c(-c3cccc(O)c3C)c2n1 (atropisomer, axis not shown) [Compound 168] | < 50 | – | 50 to 500
NC(=O)c1nc2cccnc2c(-c2cccc3c2CC(=O)N3)c1N [Compound 293] | ≥ 5000 | ≥ 5000 | –
Cc1c(O)cccc1-c1c(N)c(C(N)=O)nc2nccc(O)c12 [Compound 297] | ≥ 5000 | ≥ 5000 | –
Cc1c(O)cccc1-c1c(N)c(C(N)=O)cc2ccncc12 [Compound 335] | 50 to 500 | 1000 to 5000 | –
COc1cnc(F)c(-c2c(N)c(C(N)=O)nc3cccnc23)c1 [Compound 229] | 1000 to 5000 | ≥ 5000 | –
Cc1c(O)cccc1-c1c(N)c(C(N)=O)cc2ncc(C(F)(F)F)nc12 [Compound 139] | < 50 | – | 50 to 500
NC(=O)c1nc2cccnc2c(-c2cnn3c2CCCC3)c1N [Compound 322] | 1000 to 5000 | ≥ 5000 | –
Cc1ccc(O)c(C)c1-c1c(N)c(C(N)=O)nc2c(C(F)(F)F)cccc12 (single isomer, unassigned) [Compound 31, (P)-3-amino-4-(3-hydroxy-2,6-dimethylphenyl)-8-(trifluoromethyl) quinoline-2-carboxamide] | ≥ 5000 | – | ≥ 5000
Cc1c(O)cncc1-c1c(N)c(C(N)=O)nc2c1NCCC2 [Compound 334] | 1000 to 5000 | ≥ 5000 | –
NC(=O)c1nc2cccnc2c(-c2cncc3sccc23)c1N [Compound 230] | 50 to 500 | 1000 to 5000 | –
Cc1c(O)cccc1-c1c(N)c(C(N)=O)nc2cccc(C#N)c12 [Compound 129, 3-Amino-5-cyano-4-(3-hydroxy-2-methylphenyl)quinoline-2-carboxamide] | < 50 | < 50 | –
Cc1cccc(C)c1-c1c(N)c(C(N)=O)cc2nccnc12 [Compound 308] | ≥ 5000 | ≥ 5000 | –
COc1ccc2c(-c3c(C)ccc(O)c3C)c(N)c(C(N)=O)nc2c1 [Compound 47, 3-Amino-4-(3-hydroxy-2,6-dimethylphenyl)-7-methoxyquinoline-2-carboxamide] | 1000 to 5000 | 1000 to 5000 | –
Cc1ccc(O)cc1-c1c(N)c(C(N)=O)cc2nccnc12 (atropisomer, axis not shown; (M)) [Compound 116, (M)-7-Amino-8-(5-hydroxy-2-methylphenyl)quinoxaline-6-carboxamide] | 50 to 500 | – | 500 to 1000
Cc1ccc2c(-c3cccc(O)c3C)c(N)c(C(N)=O)nc2c1 (single isomer, unassigned) [Compound 49, (M)-3-Amino-4-(3-hydroxy-2-methylphenyl)-7-methylquinoline-2-carboxamide] | 500 to 1000 | – | 1000 to 5000
Cc1ccc2nc(C(N)=O)c(N)c(-c3cccc(O)c3C)c2c1 [Compound 55, 3-Amino-4-(3-hydroxy-2-methylphenyl)-6-methylquinoline-2-carboxamide] | 50 to 500 | 1000 to 5000 | –
Cc1ccncc1-c1c(N)c(C(N)=O)nc2cccnc12 [Compound 184] | 50 to 500 | ≥ 5000 | –
Cc1ccc(O)c(C)c1-c1c(N)c(C(N)=O)nc2nccnc12 (single isomer, unassigned) [Compound 127, (P)-7-Amino-8-(3-hydroxy-2,6-dimethylphenyl)pyrido[2,3-b]pyrazine-6-carboxamide] | < 50 | – | < 50
Cc1cnn(C)c1-c1c(N)c(C(N)=O)nc2cccnc12 [Compound 210] | ≥ 5000 | ≥ 5000 | –
Cc1n[nH]c2cccc(-c3c(N)c(C(N)=O)cc4nccnc34)c12 (single isomer, unassigned) [Compound 118, (M)-7-Amino-8-(3-methyl-1H-indazol-4-yl)quinoxaline-6-carboxamide] | 50 to 500 | – | 1000 to 5000
Cc1c(-c2c3c(cc4nccnc24)C(=O)NC(C)(C)N3)ccc(F)c1O (atropisomer, axis not shown) [Compound 312] | ≥ 5000 | ≥ 5000 | –
Cc1cc(O)c(C)c(-c2c(N)c(C(N)=O)nc3cccnc23)c1 [Compound 291] | 1000 to 5000 | – | ≥ 5000
COc1ccnc2c(-c3cccc(O)c3C)c(N)c(C(N)=O)cc12 [Compound 318] | < 50 | – | 50 to 500
